Here are results for 21 compounds from US11918582B2 (RAPT Therapeutics, Inc., priority 2021, dated 2024).

Each structure is given as a SMILES string.

The target in this test is T1, human HPK1 (MAP4K1) (Homo sapiens, UniProt Q92918).
T1 construct: Recombinant human HPK1 kinase domain was obtained from ThermoFisher (Cat. #PV6357) and SignalChem (Cat. #M23-11G); purchased ThermoFisher; SignalChem PV6357; M23-11G
T1 sequence (Q92918 17-274 limits assumed): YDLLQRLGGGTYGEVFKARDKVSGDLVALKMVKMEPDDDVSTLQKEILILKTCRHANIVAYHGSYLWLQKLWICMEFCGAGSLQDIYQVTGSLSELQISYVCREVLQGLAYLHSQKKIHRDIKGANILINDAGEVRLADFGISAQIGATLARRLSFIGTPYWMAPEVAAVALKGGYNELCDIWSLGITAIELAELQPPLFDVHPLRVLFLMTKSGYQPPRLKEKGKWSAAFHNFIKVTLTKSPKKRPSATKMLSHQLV
Nature of the test: Biochemical assay for activity against HPK1 (ADP-Glo, MBP substrate). As to conditions: recombinant human HPK1 kinase domain, 1 nM enzyme, ADP-Glo luminescence. Summed up: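 IC50s come from ADP-Glo luminescence after a 2 h room-temperature reaction phosphorylating MBP in the presence of ATP. Compound was first preincubated 15 min with 1 nM HPK1 kinase domain, human recombinant. Buffer: 50 mM HEPES pH 7.5, 150 mM NaCl, 3 mM TCEP, 10 mM MgCl2, 0.005% Tween-20, 0.01% BSA.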
Background: In ADP-Glo the light output rises with the ADP produced.
The IC50 is the concentration that gives 50% inhibition. With `CCN1CCc2cc(OC)c(Nc3ncc4cnn([C@H]5CC[C@H](O)CC5)c4n3)cc2C1` [Example 155, trans-4-(6-((2-ethyl-6-methoxy-1,2,3,4-tetrahydroisoquinolin-7-yl)amino)-1H-pyrazolo[3,4-d]pyrimidin-1-yl)cyclohexan-1-ol], the IC50 was less than 100 nM.

As for `COc1cc2c(cc1Nc1ncc3cnn(C[C@@H]4CCCN4C(C)=O)c3n1)[C@@H](C)N(C)CC2` [Example 184, 1-((S)-2-((6-(((R)-6-methoxy-1,2-dimethyl-1,2,3,4-tetrahydroisoquinolin-7-yl)amino)-1H-pyrazolo[3,4-d]pyrimidin-1-yl)methyl)pyrrolidin-1-yl)ethan-1-one], the IC50 was less than 100 nM. The result for `COc1cc2c(cc1Nc1ncc3cnn(C[C@H]4CCCN(S(C)(=O)=O)C4)c3n1)CN(C)CC2` [Example 143, 6-methoxy-2-methyl-N-[1-[[(3R)-1-methylsulfonyl-3-piperidyl]methyl]pyrazolo[3,4-d]pyrimidin-6-yl]-3,4-dihydro-1H-isoquinolin-7-amine] reads less than 100 nM; that for `COc1cc2c(cc1Nc1ncc3cnn(C[C@@H]4CCCN4C(C)=O)c3n1)CN(C[C@@H](C)O)CC2` [Example 195, 1-((S)-2-((6-((2-((R)-2-hydroxypropyl)-6-methoxy-1,2,3,4-tetrahydroisoquinolin-7-yl)amino)-1H-pyrazolo[3,4-d]pyrimidin-1-yl)methyl)pyrrolidin-1-yl)ethan-1-one], less than 100 nM; that for `CNC(=O)[C@H]1CC[C@@H](n2nc(C)c3cnc(Nc4cc5c(cc4OC)CCN(C)C5)nc32)CC1` [Example 52, (cis)-4-(6-((6-methoxy-2-methyl-1,2,3,4-tetrahydroisoquinolin-7-yl)amino)-3-methyl-1H-pyrazolo[3,4-d]pyrimidin-1-yl)-N-methylcyclohexane-1-carboxamide], less than 100 nM. Then `COc1cc2c(cc1Nc1ncc3cnn([C@H]4CC[C@H](CO)CC4)c3n1)CN(CCF)CC2` [Example 169, [4-[6-[[2-(2-fluoroethyl)-6-methoxy-3,4-dihydro-1H-isoquinolin-7-yl]amino]pyrazolo[3,4-d]pyrimidin-1-yl]cyclohexyl]methanol], with less than 100 nM; and `COc1cc2c(cc1Nc1ncc3cnn(CCCO)c3n1)CN(C)CC2` [Example 96, 3-[6-[(6-methoxy-2-methyl-3,4-dihydro-1H-isoquinolin-7-yl)amino]pyrazolo[3,4-d]pyrimidin-1-yl]propan-1-ol], with less than 100 nM. For the compound `COc1cc2c(cc1Nc1ncc3cnn([C@@H]4C[C@@H]5C[C@H]4N(C(C)=O)C5)c3n1)CN(C)CC2` (relative stereo) [Example 193, rel-1-((1R,4S,6R)-6-(6-((6-methoxy-2-methyl-1,2,3,4-tetrahydroisoquinolin-7-yl)amino)-1H-pyrazolo[3,4-d]pyrimidin-1-yl]-2-azabicyclo[2.2.1]heptan-2-yl)ethan-1-one], the concentration for half-maximal inhibition (IC50) is less than 100 nM. The result for `COc1cc2c(cc1Nc1ncc3cnn(CC4(F)CC4)c3n1)CN(C)CC2` [Example 204, N-(1-((1-fluorocyclopropyl)methyl)-1H-pyrazolo[3,4-d]pyrimidin-6-yl)-6-methoxy-2-methyl-1,2,3,4-tetrahydroisoquinolin-7-amine] reads less than 100 nM; that for `COc1cc2c(cc1Nc1ncc3c(C)nn(C[C@@H]4CCCN4C(C)=O)c3n1)CN(C)CC2` [Example 115, (S)-1-(2-((6-((6-methoxy-2-methyl-1,2,3,4-tetrahydroisoquinolin-7-yl)amino)-3-methyl-1H-pyrazolo[3,4-d]pyrimidin-1-yl)methyl)231yrrolidine-1-yl)ethan-1-one], 100 to 250 nM; that for `COc1cc2c(cc1Nc1ncc3cnn(CC4CC4(F)F)c3n1)CN(C)CC2` (stereo not drawn) [Example 206, N-(1-((2,2-difluorocyclopropyl)methyl)-1H-pyrazolo[3,4-d]pyrimidin-6-yl)-6-methoxy-2-methyl-1,2,3,4-tetrahydroisoquinolin-7-amine], less than 100 nM. Then `CC(=O)N1CCC[C@H]1Cn1ncc2cnc(Nc3cc4c(cc3C)CCN(C)C4)nc21` [Example 183, (S)-1-(2-((6-((2,6-dimethyl-1,2,3,4-tetrahydroisoquinolin-7-yl)amino)-1H-pyrazolo[3,4-d]pyrimidin-1-yl)methyl)pyrrolidin-1-yl)ethan-1-one], with less than 100 nM; and `COc1cc2c(cc1Nc1ncc3cnn([C@H]4CCC[C@H](C(=O)O)C4)c3n1)CN(C)CC2` (racemic) [Example 28, rac-(1S,3S)-3-(6-((6-methoxy-2-methyl-1,2,3,4-tetrahydroisoquinolin-7-yl)amino)-1H-pyrazolo[3,4-d]pyrimidin-1-yl)cyclohexane-1-carboxylic acid], with less than 100 nM; and `COc1cc2c(cc1Nc1ncc3cnn([C@@H]4CC[C@H]5CN(C(C)=O)[C@H]54)c3n1)CN(C)CC2` [Example 209, 1-((1S,4R,5R)-4-(6-((6-methoxy-2-methyl-1,2,3,4-tetrahydroisoquinolin-7-yl)amino)-1H-pyrazolo[3,4-d]pyrimidin-1-yl)-6-azabicyclo[3.2.0]heptan-6-yl)ethan-1-one], with less than 100 nM. The result for `Cc1nn(C2COC2)c2nc(Nc3ccc4c(c3)CN(C)CC4)ncc12` [Example 2, 2-methyl-N-[3-methyl-1-(oxetan-3-yl)pyrazolo[3,4-d]pyrimidin-6-yl]-3,4-dihydro-1H-isoquinolin-7-amine] reads less than 100 nM; that for `COc1cc2c(cc1Nc1ncc3cnn(C[C@@H]4CCCN4C(C)=O)c3n1)CN(CCO)CC2` [Example 194, (S)-1-(2-((6-((2-(2-hydroxyethyl)-6-methoxy-1,2,3,4-tetrahydroisoquinolin-7-yl)amino)-1H-pyrazolo[3,4-d]pyrimidin-1-yl)methyl)pyrrolidin-1-yl)ethan-1-one], less than 100 nM.

Turning to `COc1cc2c(cc1Nc1ncc3cnn(CC4CC(CO)C4)c3n1)CN(C)CC2` (stereo not drawn) [Example 61, (3-((6-((6-methoxy-2-methyl-1,2,3,4-tetrahydroisoquinolin-7-yl)amino)-1H-pyrazolo[3,4-d]pyrimidin-1-yl)methyl)cyclobutyl)methanol], the IC50 was less than 100 nM. Then `COCCS(=O)(=O)NC[C@H]1C[C@H](n2ncc3cnc(Nc4cc5c(cc4OC)CCN(C)C5)nc32)C1` [Example 124, 2-methoxy-N-(((1r,3r)-3-(6-((6-methoxy-2-methyl-1,2,3,4-tetrahydroisoquinolin-7-yl)amino)-1H-pyrazolo[3,4-d]pyrimidin-1-yl)cyclobutyl)methyl)ethane-1-sulfonamide], with less than 100 nM; and `COc1cc2c(cc1Nc1ncc3cnn([C@H]4CC[C@H](C(N)=O)C4)c3n1)CN(C)CC2` (racemic) [Example 42, rac-(1S,3S)-3-(6-((6-methoxy-2-methyl-1,2,3,4-tetrahydroisoquinolin-7-yl)amino)-1H-pyrazolo[3,4-d]pyrimidin-1-yl)cyclopentane-1-carboxamide], with less than 100 nM.

With `COc1cc2c(cc1Nc1ncc3cnn(C[C@@H]4[C@@H](C)CCN4C(C)=O)c3n1)CN(C)CC2` (single isomer, unassigned) [Example 148], the IC50 is less than 100 nM. Then `COc1cc2c(cc1Nc1ncc3cnn(C[C@@H]4[C@H](C)CCN4C(C)=O)c3n1)CN(C)CC2` [Example 189, 1-((2S,3R)-2-((6-((6-methoxy-2-methyl-1,2,3,4-tetrahydroisoquinolin-7-yl)amino)-1H-pyrazolo[3,4-d]pyrimidin-1-yl)methyl)-3-methylpyrrolidin-1-yl)ethan-1-one], with less than 100 nM.
